Legend:
[1] = test system: immunosuppressive MDSC population; details: mouse, in vivo; cited from earlier work
[2] = test system: NSCLC cell lines (LLC, H1650, A549); assay: Annexin V apoptosis assay (flow cytometry); assay type: cell-based, mouse (LLC), human (H1650; details: 48 h, compared to untreated cells
Experimental: FIGS. 1A-lE depict that WFA induces ER stress-mediated apoptosis in NSCLC cell lines. (FIG. 1A) NSCLC cells were plated on 96-well plates and treated with different concentrations of WFA ([…]) in triplicates. Forty-eight hours post-treatment, cell viability was determined using Cell Titer-Glo assay. Luminescence values were normalized to control untreated cells and IC50 values are represented as the mean of two independent experiments ±SEM. (FIG. 1B) NSCLC cells were treated WFA for forty-eight hours, then collected to measure apoptotic cell death using Annexin V assay in LLC cells, H1650 cells, and A549 cells. Percentages of early (annexin*DAPI-) and late (annexin*DAPI+) apoptotic cells are represented as means of two separate experiments ±SEM and statistical significance was calculated using one-way ANOVA and a Fisher LSD post hoc test was used to compare the mean of each group to that of the control group. (FIGS. 1C-1D) WFA treated cells were collected in Trizol and total RNA was isolated to measure the levels of Bax (FIG. 1C) and Bcl2 (FIG. 1D) mRNA using qRT-PCR. PCR experiments were repeated at least twice, and one representative experiment is shown as mean±SEM of the technical replicates. […] The quantification of western blot band density was performed using Image J software v.1.54d and normalized to housekeeping control protein in LLC cells (0-actin). […]

[3] = test system: PARP, BCL-XL, CHOP, p-eIF-2 in NSCLC cell lines; assay: Western blot of apoptosis and ER stress markers; assay type: cell-based, mouse (LLC), human (H1650)
Experimental: FIGS. 1A-lE depict that WFA induces ER stress-mediated apoptosis in NSCLC cell lines. (FIG. 1A) NSCLC cells were plated on 96-well plates and treated with different concentrations of WFA ([…]) in triplicates. Forty-eight hours post-treatment, cell viability was determined using Cell Titer-Glo assay. Luminescence values were normalized to control untreated cells and IC50 values are represented as the mean of two independent experiments ±SEM. (FIG. 1B) NSCLC cells were treated WFA for forty-eight hours, then collected to measure apoptotic cell death using Annexin V assay in LLC cells, H1650 cells, and A549 cells. Percentages of early (annexin*DAPI-) and late (annexin*DAPI+) apoptotic cells are represented as means of two separate experiments ±SEM and statistical significance was calculated using one-way ANOVA and a Fisher LSD post hoc test was used to compare the mean of each group to that of the control group. (FIGS. 1C-1D) WFA treated cells were collected in Trizol and total RNA was isolated to measure the levels of Bax (FIG. 1C) and Bcl2 (FIG. 1D) mRNA using qRT-PCR. PCR experiments were repeated at least twice, and one representative experiment is shown as mean±SEM of the technical replicates. (FIG. 1E) Western blot of ER stress markers p-eIF-2 and CHOP was performed using total lysates of WFA-treated LLC cells. The quantification of western blot band density was performed using Image J software v.1.54d and normalized to housekeeping control protein in LLC cells (0-actin). […] Data were obtained from two independent experiments.
FIGS. 7A-7I depict qRT-PCR analysis of the change in expression of pro-apoptotic and anti-apoptotic induced by WFA treatment. WFA increased the mRNA levels of proapoptotic protein Bak-1 in (FIG. 7A) LLC cells and BAD in (FIG. 7C) H1650 cells. […]
Total protein was isolated using Radioimmunoprecipitation Assay (RIPA) buffer (Thermo Fisher Scientific, Waltham, MA, USA) and sonication of cell pellets using Branson digital sonifier 450. […] Then, protein levels were quantified using a Pierce Coomassie Protein assay kit (Thermo Fisher Scientific, Waltham, MA, USA) according to the manufacturer's instruction and the absorbance values at 595 nm were measured using a plate reader (Bio Tek, Winooski, VT, USA) and used to calculate protein concentrations. […] Protein bands were detected using SuperSignal West Pico PLUS Chemiluminescent Substrate or West Femto Maximum Sensitivity Substrate (Thermo Fisher Scientific, Waltham, MA, USA) and imaged using the ChemiDoc XRS imaging system (Bio-Rad, Hercules, CA, USA) according to the manufacturer's instructions. Band density was measured using Image J software version 1.54d and was normalized to housekeeping proteins (0-actin or Vinculin). […]

[4] = test system: IFN-α mRNA in LLC and H1650 cells; assay: IFN-α qRT-PCR; assay type: cell-based, mouse (LLC), human (H1650)
Experimental: ROS is the main regulator of WFA-induced PD-L1 upregulation. […] All cells were treated with 0.6 μM WFA except A549, 4t1 and MDA-MB-231 cells which were treated with 4 μM, 1 μM, 2 μM WFA, respectively. […] PCR experiments were repeated twice, and one representative experiment is shown as mean±SEM of 3 technical replicates. Flow cytometry experiments were performed twice and the mean±SEM of two representative experiments is shown. Treatments were compared to the control using one-way ANOVA and Fisher LSD post hoc test. * p<0.05, ** p<0.01, *** p<0.001, **** p<0.0001.
Total cellular RNA was isolated from collected cell pellets using TRIzol reagent (Invitrogen, Waltham, MA, USA) and then quantified using the 2000 Nanodrop spectrophotometer (Thermo Fisher Scientific, Waltham, MA, USA). cDNA synthesis was performed using the Verso cDNA synthesis kit (Thermo Fisher Scientific, Waltham, MA, USA). qPCR was then performed using Forget-Me-Not EvaGreen qPCR Master Mix (Biotium, Fremont, CA, USA) in a Bio-Rad CFX384 thermocycler according to the manufacturer's instructions. The CFX Maestro software version 2.3 (Bio-Rad, Hercules, CA, USA) was used to calculate the ΔCt and ΔΔCt values and gene expression was normalized to housekeeping genes glyceraldehyde 3-phosphate dehydrogenase (GAPDH) or β-actin. […]

[5] = test system: PD-L1 in NRF-2 knockdown LLC or H1650 cells; assay: NRF-2 siRNA knockdown then WFA, PD-L1 by flow cytometry; assay type: cell-based, mouse (LLC), human (H1650); details: WFA 24 h after siRNA, similar to scramble controls

For `CC1=C(CO)C(=O)O[C@@H]([C@@H](C)[C@H]2CC[C@H]3[C@@H]4C[C@H]5O[C@]56[C@@H](O)C=CC(=O)[C@]6(C)[C@H]4CC[C@]23C)C1` [WFA, Withaferin A], the “MDSC tumor infiltration and immunosuppressive function” value [1] is given as “reducing”, the “early and late apoptotic cell populations” value [2] is given as “significant increase” and the “levels of BCL-XL” value ([3]; H1650 cells) is given as “reduced”. For the same compound, the PARP cleavage ([3]; LLC and H1650 cells) was “increased”, the “levels of C/EBP homologous protein (CHOP)” value ([3]; LLC cells) was “increases” and the “phosphorylation of eIF-2” value ([3]; LLC cells) was “increases”. The “IFN-α mRNA” value [4] was “increased” and the “PD-L1 in NRF-2 knockdown cells” value [5] was “still upregulated”.

— US20240293430A1, “WITHAFERIN A AND IMMUNE CHECKPOINT BLOCKER COMBINATION THERAPIES” (University of South Florida, priority 2023, published 2024)
